The values that follow come from patent publication EP0976707A1, “CYCLOALKYL BENZYL ETHER COMPOUNDS” (Nissan Chemical Industries, Ltd., priority 1997, dated 1998).

What all share (type): in vivo
Series [1] concerns Monochoria vaginalis. Briefly: Herbicidal effect test under submerged conditions (Test Example 5). More on the design: key: 0 indicating no influence; 5 indicating complete withering. The note with it: dosage 500 g/ha; three weeks after the treatment; rating 0-5. The text has this: (§1) [Test Example 5] Herbicidal effect test under submerged conditions
(§2) In a 1/10,000-are Wagner pot was filled alluvial soil, which was mixed with water introduced therein to establish submerged conditions at a water depth of 4 cm. Respective seeds of Monochoria vaginalis, Rotala indica and Scirpus juncoides were sowed mixedly in the pot and then treated with the compound of the present invention prepared according to one of Composition Examples. Three weeks after the treatment, the herbicidal effect on the various weeds was examined.

A further series relates to Rotala indica. The series is described as above. More on the design: key: 0 indicating no influence; 5 indicating complete withering. The note with it: dosage 500 g/ha; three weeks after the treatment; rating 0-5.
From the text: as §1, §2

In series [2] the test system is Scirpus juncoides. Described as above. On the set-up: key: 0 indicating no influence; 5 indicating complete withering. To be noted: dosage 500 g/ha; three weeks after the treatment; rating 0-5.
From the text: as §1, §2

The test system of another series is transplanted rice. Briefly: Herbicidal effect test under submerged conditions, inhibition ratio (Test Example 6). The note with it: live weight of aerial part, three weeks after the treatment. The text has this:
Herbicidal effect test under submerged conditions
In a 1/5,000-are Wagner pot was filled alluvial soil, which was mixed with water introduced therein to establish submerged conditions at a water depth of 4 cm. After seeds of Monochoria vaginalis and Scirpus juncoides were sowed mixedly in the pot, 2.5 leaf stage rice seedlings were transplanted at a depth of 2 cm. On the next day of transplantation of the rice, the compound of the present invention prepared according to one of Composition Examples was applied. […] In the tables, (E) indicates expected values obtained by the equation of Colby and (F) indicates found values.
The expected activity from the stable combination of two herbicides, can be calculated as follows.

For series [3], the system named is Monochoria vaginalis. The series is described as above. To be noted: Pontederia vaginalis, 504 h, read-out: inhibition ratio (%), C (Monochoria vaginalis); for pest or weed control at 2 g/ha: dosage 2 g/ha. The text has this:
(§3) [Test Example 6] Herbicidal effect test under submerged conditions
(§4) In a 1/5,000-are Wagner pot was filled alluvial soil, which was mixed with water introduced therein to establish submerged conditions at a water depth of 4 cm. After seeds of Monochoria vaginalis and Scirpus juncoides were sowed mixedly in the pot, 2.5 leaf stage rice seedlings were transplanted at a depth of 2 cm. On the next day of transplantation of the rice, the compound of the present invention prepared according to one of Composition Examples was applied. Three weeks after the treatment, the live weights of aerial parts of each kind of the weeds and rice were measured and inhibition ratios (%) were obtained according to Test Example 4. In the tables, (E) indicates expected values obtained by the equation of Colby and (F) indicates found values. Left side values and right side values in the column of application rate for each active ingredient indicate corresponding dosages of compounds in the column of compound name.
(§5) Synergistic herbicidal effect of herbicide mixtures will be explained as follows. That is, individual active compounds in many cases may be deficient in their herbicidal activity. In such a case, if the herbicidal activity of two active compounds in combination is higher than the simple sum of the activities of the compounds (expected activity), then this is called synergistic action. The expected activity from the stable combination of two herbicides, can be calculated as follows. (cf. Colby, S. R., Calculation of Synergistic and Antagonistic Reactions of Combination of Herbicides, Weed, vol. 15, pages 20-22 (1967)) E = α + β - ( α · β / 100) [formula] α : Inhibition ratio when herbicide A is applied in a rate of a kg/ha β : Inhibition ratio when herbicide B is applied in a rate of b kg/ha E : Inhibition ratio expected when herbicide A is applied in a rate of a kg/ha and herbicide B is applied in a rate of b kg/ha.

The test system of series [4] is Scirpus juncoides. The series is described as above. The note with it: Schoenoplectiella juncoides, 504 h, read-out: inhibition ratio (%), B (Scirpus juncoides); for pest or weed control at 2 g/ha: dosage 2 g/ha.
From the text: as §3, §4, §5

Where [5] appears, read: live weight of aerial part, three weeks after the treatment.
[6] abbreviates: dosage 4 g/ha, live weight of aerial part, three weeks after the treatment.

Each structure is given as a SMILES string. Where two headings read alike, the source gives them in different places.

As to `Cc1ccc(NC(=O)NC(C)(C)c2ccccc2)cc1` [R-1, daimuron, reference compound], the “herbicidal effect, C (Monochoria vaginalis)” value with Monochoria vaginalis [1] is 0. The “herbicidal effect, D (Rotala indica)” value with Rotala indica was 1. Also, the “herbicidal effect, B (Scirpus juncoides)” value in the series on Scirpus juncoides [2] was 5.
In the case of `CCOC(=O)c1cnn(C)c1S(=O)(=O)NC(=O)Nc1nc(OC)cc(OC)n1` [R-2, pyrazosulfuron ethyl], the “inhibition ratio (%), a (transplanted rice)” value (shortened to “inhibition ratio (%)”) in the series with transplanted rice (dosage 2 g/ha) was 0%. Moreover, the pest or weed control at 2 g/ha turned out to be 80% in the series with Monochoria vaginalis [3] (setting [5]) and 71% in the series with Scirpus juncoides [4] (setting [5]).
Consider `COC(=O)c1c(Cl)nn(C)c1S(=O)(=O)NC(=O)Nc1nc(OC)cc(OC)n1` [R-3, halosulfuron methyl], for which the “inhibition ratio (%)” value in the series on transplanted rice (dosage 4 g/ha) is on record as 0%. For the same molecule, the pest or weed control at 4 g/ha with Monochoria vaginalis [3] came to 71%; in the series on Scirpus juncoides [4], 66%.
Regarding `COc1cc(OC)nc(NC(=O)NS(=O)(=O)c2c(Cl)nc3ccccn23)n1` [R-4, imazosulfuron], the figures for the pest or weed control at 4 g/ha in the series with Monochoria vaginalis [3] (setting [6]) and in the series with Scirpus juncoides [4] (setting [6]) were 65% and 60%, respectively.
Turning to `COc1cc(OC)nc(NC(=O)NS(=O)(=O)c2c(-c3nnn(C)n3)cnn2C)n1` [R-5, azimsulfuron], the values for the pest or weed control at 2 g/ha with Monochoria vaginalis [3] (setting [5]) and with Scirpus juncoides [4] (setting [5]) were 75% and 61%, respectively.
`COc1cc(OC)nc(NC(=O)NS(=O)(=O)Nc2ccccc2C(=O)C2CC2)n1` [R-6, cyclosulfamuron]: in the series with transplanted rice (dosage 4 g/ha), the “inhibition ratio (%)” value turned out to be 0%. Besides, the pest or weed control at 4 g/ha with Monochoria vaginalis [3] (setting [6]) was 77%; in the series on Scirpus juncoides [4] (setting [6]), 78%.
Consider `CCOc1ccccc1OS(=O)(=O)NC(=O)Nc1nc(OC)cc(OC)n1` [R-7, ethoxysulfuron], for which the pest or weed control at 2 g/ha with Monochoria vaginalis [3] (setting [5]) worked out at 63%; with Scirpus juncoides [4] (setting [5]), 72%.
In the case of `COCCOc1ccccc1S(=O)(=O)NC(=O)N=c1nc(OC)[nH]c(OC)n1` [R-8, cinosulfuron], the “inhibition ratio (%)” value in the series with transplanted rice (dosage 4 g/ha) is 0%. Further, the figures for the pest or weed control at 4 g/ha in the series on Monochoria vaginalis [3] and in the series on Scirpus juncoides [4] were 69% and 70%, respectively.
On to `COC(=O)c1ccccc1CS(=O)(=O)NC(=O)Nc1nc(OC)cc(OC)n1` [R-9, bensulfuron methyl], for which the pest or weed control at 4 g/ha was 69% with Monochoria vaginalis [3] (setting [6]) and 68% in the series on Scirpus juncoides [4] (setting [6]).
